Paper PMC12059162 (Scientific Reports, 2025)

Key:
[1] = tested on: phospho-p53 (S392); assay: Human Apoptosis Array in PANC-1 cells; conditions: PANC-1, 0.5 µM, 72 h
[2] = tested on: SMAC; assay: Human Apoptosis Array in PANC-1 cells; conditions: PANC-1, 0.5 µM, 72 h
[3] = tested on: TRAIL; assay: qPCR apoptotic gene expression in PANC-1 cells; conditions: PANC-1, 25 µM, any of the time points (3-48 h)
[4] = tested on: PANC-1 cells; assay: Annexin-V/7AAD early and late apoptosis flow cytometry; assay type: cell-based, human; conditions: PANC-1, 0.5 µΜ, 72 h
Experimental: For apoptosis measurements, Annexin-V positive/7AAD (7-Aminoactinomycin D) negative, early apoptotic and Annexin-V/ 7AAD double positive, late apoptotic cells were differentiated using a BD FACSCalibur (BD FACSCalibur, Becton-Dickinson, San Jose, CA, USA) flow cytometer[49],[50]. […] After 24, 48, and 72 h treatment, cells were harvested with 300 µL TrypLE (Sigma Ltd. St. Louis, MO, USA). Fresh cell culture medium was then added to stop the effect of TrypLE and the harvested cells were centrifuged for 5 min (300 g). Then, the supernatant was removed, and cells were resuspended in 300 µL of Annexin binding buffer (Sony Biotechnology, Weybridge, UK). For labelling, 3–3 µL of Annexin-V-FITC (Sony Biotechnology, Weybridge, UK) and 7AAD (Sony Biotechnology, Weybridge, UK) were added, followed by 10 min incubation at room temperature in the dark. For flow cytometric analysis (BD FACSCalibur, Becton–Dickinson, San Jose, CA, USA), a minimum of 10^4 cells/sample was measured. Annexin-V was detected using the FL-1 channel (530/30), and 7AAD was detected using the FL-3 channel (670 LP). In each treatment group, 3 parallel samples were analysed. The results were evaluated using Flowing Software 2.5.1 (Turku Centre of Biotechnology, Turku, Finland).

[5] = tested on: EBC-1 cells; assay: alamarBlue cell viability; conditions: Homo sapiens, EBC-1, 72 h
[6] = tested on: HSP60; assay: Human Apoptosis Array in PANC-1 cells; conditions: PANC-1, 0.5 µM, 72 h
[7] = tested on: phospho-p53 (S46); assay: Human Apoptosis Array in PANC-1 cells; conditions: PANC-1, 0.5 µM, 72 h
[8] = tested on: PANC-1 cells; assay: Holographic microscopy morphometry (HoloMonitor M4); assay type: cell-based, human; conditions: PANC-1, 0.5 µM, 72 h
Experimental: To follow the morphometric changes, a holographic transmission microscope (HoloMonitor M4; Phase Holographic Imaging AB, Lund, Sweden) was used, which uses a laser to produce 3D images of the cells[51],[52]. This […] imaging technique allows us to monitor cell morphological changes in real-time. First, the cells were seeded at a concentration of 3.5 × 10^5 cells/flask/4000 µL cell culture medium. […] At least 5 images were taken from each culture dish, taking care to assess different fields of view. These images were evaluated using the microscope software (Hstudio M4). We assessed the average area and the average optical thickness of the cells.

[9] = tested on: PANC-1 cells; assay: xCELLigence SP impedimetric cell viability; conditions: Homo sapiens, PANC-1, 72 h
[10] = tested on: cleaved caspase-3; assay: Human Apoptosis Array in PANC-1 cells; conditions: PANC-1, 0.5 µM, 72 h
[11] = tested on: MIA PaCa-2 cells; assay: Cell cycle analysis (PI, flow cytometry); conditions: MIA PaCa-2, 0.5 µM, 48 h
[12] = cited from earlier work
[13] = tested on: A2058 cells; assay: alamarBlue cell viability; conditions: Homo sapiens, A2058, 72 h, read-out: Viability (%) after 72-h treatment
[14] = tested on: COLO-205 cells; assay: alamarBlue cell viability; conditions: Homo sapiens, COLO 205, 72 h, read-out: Viability (%) after 72-h treatment
[15] = in vitro; conditions: mouse
[16] = tested on: phospho-p53 (S15); assay: Human Apoptosis Array in PANC-1 cells; conditions: PANC-1, 0.5 µM, 72 h
[17] = tested on: MIA PaCa-2 cells; assay: alamarBlue cell viability; conditions: Homo sapiens, MIA PaCa-2, 72 h
[18] = tested on: cIAP-1; assay: Human Apoptosis Array in PANC-1 cells; conditions: PANC-1, 0.5 µM, 72 h
[19] = tested on: p53; assay: qPCR apoptotic gene expression in PANC-1 cells; conditions: PANC-1, 25 µM, 48 h, normalised to DMSO control
[20] = tested on: caspase-3/7; assay: CellEvent Caspase-3/7 activity imaging in PANC-1 cells; conditions: PANC-1, 0.5 µM, 72 h, normalised to DMSO control (n = 1)
[21] = in vitro; conditions: human
[22] = tested on: XIAP; assay: Human Apoptosis Array in PANC-1 cells; conditions: PANC-1, 0.5 µM, 72 h
[23] = tested on: FADD; assay: Human Apoptosis Array in PANC-1 cells; conditions: PANC-1, 0.5 µM, 72 h
[24] = tested on: PANC-1 cells; assay: Cell cycle analysis (PI, flow cytometry)
[25] = read-out: IC50 values (μM) 72 hours
[26] = read-out: Viability (%) after 72-h treatment

## Cc1ccccc1CN1C(=O)C2=C(CCN(Cc3ccccc3)C2)N2CCN=C12 [ONC201, reference compound]
[1]
  phospho-p53 (S392) protein level: significantly increased
[2]
  SMAC protein level: significantly increased
[3]
  TRAIL induction (mRNA): not detected
[4]
  Apoptosis-inducing effect: no apoptosis-inducing effect
[5]; [25]
  IC50: 5.72 µM
[5]; [26]
  viability at 0.5 µM: 101 ± 1.6%
  viability at 10 µM: 47.1 ± 2.2%
  viability at 25 µM: 45.5 ± 2%
[6]
  HSP60 protein level: increase
[7]
  phospho-p53 (S46) protein level: significantly increased
[8]
  Effect on cell morphology: did not affect cell morphology
[9]; [25]
  IC50: 6.1 µM
[9]; [26]
  viability at 0.5 µM: 105 ± 5.2%
  viability at 10 µM: 16 ± 2.4%
  viability at 25 µM: 10.2 ± 2.2%
[10]
  cleaved caspase-3 protein level: significantly increased
[11]
  Effect on cell cycle: did not have any influence
[12]
  logP: 2.3
[13]
  viability at 0.5 µM: 101 ± 1.7%
  viability at 10 µM: 73.7 ± 4.5%
  viability at 25 µM: 62.1 ± 8.7%
[14]
  viability at 0.5 µM: 97 ± 2.5%
  viability at 10 µM: 69.7 ± 2.4%
  viability at 25 µM: 71 ± 0.7%
[15]
  viability at 72 h, 0.5 µM: 99.4 ± 1.8%
  viability at 72 h, 10 µM: 89.2 ± 6.3%
  viability at 72 h, 25 µM: 89 ± 5.6%
[16]
  phospho-p53 (S15) protein level: significantly increased
[17]; [25]
  IC50: 1.12 µM
[17]; [26]
  viability at 0.5 µM: 77.6 ± 2.3%
  viability at 10 µM: 44.6 ± 2%
  viability at 25 µM: 55 ± 1.6%
[18]
  cIAP-1 protein level: increase
[19]
  p53 mRNA expression: 3.3 fold
[20]
  Number of caspase-3/7 active cells, increase: 6.6 fold
[21]
  viability at 72 h, 0.37 µM: 115 ± 1.4%
  viability at 72 h, 8.6 µM: 88.3 ± 7.4%
  viability at 72 h, 25 µM: 74.9 ± 8.6%
[22]
  XIAP protein level: increase
[23]
  FADD protein level: significantly increased
[24]; PANC-1, 0.5 µM, 48 h
  Effect on cell cycle: did not have any influence
[24]; PANC-1, 10 and 25 µM, 72 h
  Increase in cell number in the G2/M phase: 2.1 fold
